Measurements from US20230295212A1 (ROME Therapeutics, Inc., priority 2022, published 2023).

Tested on: human PBMC
Test: Decitabine-stimulated human PBMC assay (IFN-β, cell viability)
Type: cell-based
Settings: anti-CD3/anti-CD28, decitabine 10 μM, 5 days
Protocol: EasySep buffer (32 mL, […] Technologies, cat. #20144) was used to dilute 8 mL of LRSC buffy coat (from fresh Leukopak) with gentle mixing. The diluted buffy coat (20 mL) was transferred into each of two SepMate 50 tubes, and the tubes were filled with 15 mL of Lyphoprep ([…], cat. #07851) density gradient. The SepMate tubes were then centrifuged at 1200G for 10 minutes at room temperature with the brake on. The top layer of supernatant was collected in SepMate tubes by quickly pouring it into a new 50 mL conical tube. The PBMCs were washed with EasySep buffer ×2 by centrifuging at 300G for 5 minutes. The cells were resuspended in 30 mL of EasySep and centrifuged at 100G for 5 minutes with the brake off, and the platelets were removed. The cells were then resuspended in 6 mL of 1×RBC lysis buffer (Invitrogen) and incubated at 37° C. for 5 minutes. 25 mL of EasySep buffer was then mixed into the tube and centrifuged at 300G for 5 minutes. The cells were resuspended in 10 mL of EasySep buffer and the cells were then counted with Cellometer (AO/PI). The PBMCs were resuspended in RPMI1640 (ThermoFisher)^+10% FBS (HyClone)^+μ/s at 3×10^6/mL. The PBMCs (100 μL, 300 k PBMCs) were then seeded in a 96-well flat bottom microplate (Corning) that had been precoated with 100 μL of anti-CD3 antibody (10 μg/mL in PBS, Biolegend) or PBS at 4° C., one day before the assay was commenced.
To each well the following solutions were added 1) 100 μL of cells (final cell number per well is 3×10^5 cell/well); 2) 25 μL of anti-CD28 antibody at 6×(5 μg/mL final concentration, Biolegend); 3) 25 μL of decitabine at 6×(10 μM final concentration); and 4) Compound in DMSO was dispensed directly into each well with a d300e digital dispenser (Tecan). The final concentration of DMSO for each well was normalized to 0.3%. The plate was incubated at 37° C. without any agitation for 5 days. Samples were collected 120 hours after incubation to determine IFN-0 and IL-2 levels using a U-PLEX Human IFN-β Assay Sector (5PL) (MSD, cat. #K151VIK-2).
After 5 days, the plate was spun down at 100×G for 5 minutes. Supernatants (100 μL) were collected for interferon β(IFN-β) analysis using the MSD assay noted above, and any residual supernatant was stored at −80° C.

For `Nc1ccn([C@H]2C[C@H](O)[C@](CO)(CCl)O2)c(=O)n1` [Compound 2, 4-amino-1-((2R,4S,5R)-5-(chloromethyl)-4-hydroxy-5-(hydroxymethyl)tetrahydrofuran-2-yl)pyrimidin-2(1H)-one], the IFN-β level was “inhibition of IFN-0”.
